Source: patent publication US11986474B1, “Methods for treating heart failure by administering cardiac sarcomere activators” (Cytokinetics, Incorporated, priority 2023, dated 2024)

Tests used:
[1] = system: cardiomyocyte calcium transient; settings: cited from earlier work
[2] = system: patients with heart failure with reduced ejection fraction; assay: GALACTIC-HF phase 3 clinical trial, outcomes by titrated dose group; type: in vivo, human; settings: for Hazard Ratio, CV Death / Hazard Ratio, Primary Endpoint: OM vs PBO
Description: In a phase 3 clinical trial, Global Approach to Lowering Adverse Cardiac Outcomes through Improving Contractility in Heart Failure (GALACTIC-HF), the following dosing regimen was used to assess treatment effect with omecamtiv mecarbil in patients with heart failure with reduced ejection fraction. At the initiation of treatment, a first dose level of 25 mg twice daily was orally administered to subjects randomized to receive omecamtiv mecarbil. At study visit week 2, a predose blood sample was collected. At week 4, subjects with week 2 omecamtiv mecarbil predose plasma concentration of less than 200 ng/mL would increase their dose level to 50 mg twice daily; subjects with week 2 plasma concentrations greater than or about 200 ng/mL but less than 300 ng/mL would increase their dose level to 37.5 mg twice daily; subjects with week 2 plasma concentrations greater than or about 300 ng/mL but less than 1000 ng/mL would maintain a dose level of 25 mg twice daily; and subjects with plasma concentration greater than or about 1000 ng/mL would start administration of placebo twice daily. At weeks 6, a predose blood sample was collected to confirm plasma concentration achieved and assess if changes to the dose should be made. […] The dosing regimen used in the GALACTIC-HF study was associated with reduced risk of heart failure outcomes and a very low incidence of excessive concentrations of omecamtiv mecarbil (e.g., plasma concentration over 1000 ng/mL). Treatment results were described in, for example, Cardiac Myosin Activation with Omecamtiv Mecarbil in Systolic Heart Failure (Teerlink et al., N. Engl. J. Med., 2021, 384; 2) and NCT02929329.
(§1) In a phase 3 clinical trial, Global Approach to Lowering Adverse Cardiac Outcomes through Improving Contractility in Heart Failure (GALACTIC-HF), all eligible participants were randomized 1:1 to oral administration of either placebo or omecamtiv mecarbil (pharmacokinetic-guided dosing: 25, 37.5 or 50 mg) twice daily. Pre-dose plasma concentrations of omecamtiv mecarbil were measured at weeks 2 and 6 with respective dose adjustments on weeks 4 and 8. The patient and investigator were blinded to the plasma concentrations and dispensed dose.
(§2) Participants randomized to omecamtiv mecarbil were started at the lowest dose of 25 mg twice daily. […] At the end of Week 8, 28.6% of participants were on 25 mg BID (including participants whose plasma concentration results were not available in time for any dose titration visit or participant compliance with dosing was not affirmatively documented by the investigator), which was higher than the anticipated proportion (4.1%) based on population PK modeling. In participants who completed the dosing algorithm as intended and were titrated to 37.5 or 50 mg BID, mean omecamtiv mecarbil plasma concentrations were higher than those in the 25 mg BID dose group. Participants titrated to doses of 37.5 or 50 mg BID tended to have reduced risk of the primary composite endpoint and cardiovascular death compared to those at a dose of 25 mg BID, as shown in Table 2 below.

[3] = GALACTIC-HF plasma concentration of omecamtiv mecarbil (PK-guided dosing); type: in vivo; settings: Week 8 visit (Week 6 concentration)
Description: as §1, §2
A summary of participants by dose group at Week 4 (dose selection determined by the Week 2 concentrations of omecamtiv mecarbil), at Week 8 (dose selection determined by the Week 6 concentrations of omecamtiv mecarbil), and the final dose at Week 12, is provided in Table 3. Overall, the proportions of participants receiving each of the omecamtiv mecarbil doses remained generally consistent over time. At the Week 8 visit, 3.0% of participants had their doses adjusted from 50 to 25 mg BID and 1.1% from 37.5 to 25 mg BID. […]

[4] = system: patients with chronic heart failure with reduced ejection fraction; settings: cited from earlier work
[5] = system: patients with heart failure with reduced ejection fraction; settings: randomized, placebo-controlled phase 3 clinical trial; cited from earlier work
[6] = 25 mg BID dose group, Cox Model Adjusting for Significant Baseline Covariates
[7] = 25 mg BID dose group, Planned Primary Analysis Cox Model
[8] = 37.5 mg BID dose group, Cox Model Adjusting for Significant Baseline Covariates
[9] = 37.5 mg BID dose group, Planned Primary Analysis Cox Model
[10] = 50 mg BID dose group, Cox Model Adjusting for Significant Baseline Covariates
[11] = 50 mg BID dose group, Planned Primary Analysis Cox Model
[12] = patients with chronic HFrEF, treatment for 20 weeks

SMILES: COC(=O)N1CCN(Cc2cccc(NC(=O)Nc3ccc(C)nc3)c2F)CC1 [omecamtiv mecarbil, methyl 4-(2-fluoro-3-(3-(6-methylpyridin-3-yl)ureido)benzyl)piperazine-1-carboxylate]
- effect on intracellular calcium transients [1]: no effect
- Hazard Ratio, CV Death [2, 6]: 1.11
- Hazard Ratio, Primary Endpoint [2, 6]: 0.93
- Hazard Ratio, CV Death [2, 7]: 1.18
- Hazard Ratio, Primary Endpoint [2, 7]: 1.00
- Primary Endpoint, participants n/N ([2]; 37.5 mg BID dose group, OM arm): OM (225/602) vs PBO (1,477/3,897)
- Hazard Ratio, CV Death [2, 8]: 0.94
- Hazard Ratio, Primary Endpoint [2, 8]: 0.90
- Hazard Ratio, CV Death [2, 9]: 1.00
- Hazard Ratio, Primary Endpoint [2, 9]: 0.93
- Hazard Ratio, CV Death [2, 10]: 0.98
- Hazard Ratio, Primary Endpoint [2, 10]: 0.89
- Hazard Ratio, CV Death [2, 11]: 0.91
- Hazard Ratio, Primary Endpoint [2, 11]: 0.87
- participants with down titration due to plasma concentration exceeding 750 ng/mL, number (%) [3]: 9 (0.22%)
- participants with down titration, plasma concentration in the 750 to <1,000 ng/mL range [3]: 8 participants
- concentration at 6 weeks ([3]; human, plasma, oral, read-out: plasma concentration of the 1 down-titrated participant above 1,000 ng/mL): 1000 ng/mL
- cardiac performance ([4]; early clinical studies, short-term intravenous administration): improved
- plasma concentration above which the risk of cardiac ischemic events is increased ([4]; likely due to shortening of diastole and decreased coronary perfusion): exceeding 1200 ng/mL
- left ventricular systolic and diastolic volumes [4, 12]: decreased
- left ventricular systolic function [4, 12]: increased
- natriuretic peptide concentrations and heart rate [4, 12]: reduced
- relative risk of a heart-failure event or death from cardiovascular causes vs placebo [5]: lower relative risk
- risk of myocardial ischemic events, ventricular arrhythmias, or death from cardiovascular causes or any cause [5]: without evidence of an increase
